Results as given in patent publication US11051515B2, “3-acyl-benzamides and their use as herbicides” (Bayer Aktiengesellschaft, priority 2017, dated 2021).

Legend:
VIOTR [1] = experiment: Post-emergence action against VIOTR; assay type: in vivo, Viola tricolor; conditions: Viola tricolor, 504 h; post-emergence, dosage 80 g/ha
Summary of the method: (§1)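 Post-emergence foliar spray on greenhouse plants at the one-leaf stage, using wettable-powder or emulsion-concentrate formulations in water (600 to […], plus 0.2% wetting agent). Damage scored by eye roughly 3 weeks later against untreated plants: 0% = like control, 100% = dead.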

ECHCG [2] = experiment: Post-emergence action against ECHCG; assay type: in vivo, Echinochloa crus-galli; conditions: Echinochloa crus-galli, 504 h; post-emergence, dosage 80 g/ha, visual assessment about 3 weeks after treatment vs untreated controls; read-out: Post-emergence action against ECHCG (herbicidal action in percent)
Summary of the method: as §1

CYPES [3] = experiment: Pre-emergence action against CYPES; assay type: in vivo, Cyperus esculentus; conditions: Cyperus esculentus, 504 h; pre-emergence, dosage 320 g/ha, scored visually after 3 weeks vs untreated controls; read-out: Pre-emergence action against CYPES (herbicidal activity)
Summary of the method: (§2)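 Seeds sown in sandy loam in wood-fiber pots and covered with soil. Greenhouse growth; visual damage scored after 3 weeks versus untreated controls (100% = dead, 0% = like control).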

SETVI [4] = experiment: Pre-emergence action against SETVI; assay type: in vivo, Setaria viridis; conditions: Setaria viridis, 504 h; pre-emergence, dosage 320 g/ha, scored visually after 3 weeks vs untreated controls; read-out: SETVI (Table B8, pre-emergence herbicidal activity)
Summary of the method: as §2

SETVI [5] = experiment: Post-emergence action against SETVI; assay type: in vivo, Setaria viridis; conditions: Setaria viridis, 504 h; post-emergence, dosage 80 g/ha, visual assessment about 3 weeks after treatment vs untreated controls; read-out: Post-emergence action against SETVI (herbicidal action in percent)
Summary of the method: as §1

STEME [6] = experiment: Pre-emergence action against STEME; assay type: in vivo, Stellaria media; conditions: Stellaria media, 504 h; Dosage 320 g/ha, pre-emergence
Summary of the method: as §2

LOLMU [7] = experiment: Pre-emergence action against LOLMU; assay type: in vivo, Lolium multiflorum; conditions: Lolium multiflorum, 504 h, dosage 320 g/ha, scored visually after 3 weeks vs untreated controls, read-out: Pre-emergence action against LOLMU (herbicidal activity)
Summary of the method: as §2

AMARE [8] = experiment: Post-emergence action against AMARE; assay type: in vivo, Amaranthus retroflexus; conditions: Amaranthus retroflexus, 504 h; post-emergence, dosage 80 g/ha, visual assessment about 3 weeks after treatment vs untreated controls; read-out: Post-emergence action against AMARE (herbicidal action in percent)
Summary of the method: as §1

ABUTH [9] = experiment: Post-emergence action against ABUTH; assay type: in vivo, Abutilon theophrasti; conditions: Abutilon theophrasti, 504 h; post-emergence, dosage 80 g/ha, visual assessment about 3 weeks after treatment vs untreated controls; read-out: Post-emergence action against ABUTH (herbicidal action in percent)
Summary of the method: as §1

LOLMU [10] = experiment: Post-emergence action against LOLMU; assay type: in vivo, Lolium multiflorum; conditions: Lolium multiflorum, 504 h, dosage 80 g/ha, visual assessment about 3 weeks after treatment vs untreated controls, read-out: Post-emergence action against LOLMU (herbicidal action in percent)
Protocol: Seeds of monocotyledonous and dicotyledonous weed and crop plants are laid out in sandy loam soil in wood-fiber pots, covered with soil and cultivated in a greenhouse under good growth conditions. 2 to 3 weeks after sowing, the test plants are treated at the one-leaf stage. The compounds of the invention, formulated in the form of wettable powders (WP) or as emulsion concentrates (EC), are then sprayed onto the green parts of the plants in the form of an aqueous suspension or emulsion at a water application rate equating to […], with addition of 0.2% wetting agent. After the test plants have been left to stand in the greenhouse under optimal growth conditions for about 3 weeks, the action of the preparations is assessed visually in comparison to untreated controls (herbicidal action in percent (%): 100% activity=the plants have died, 0% activity=like control plants). […] At the same time, inventive compounds leave Gramineae crops such as barley, wheat, rye, millet/Sorghum, corn or rice virtually undamaged when applied post-emergence, even at high active ingredient dosages. In addition, some substances are also harmless to dicotyledonous crops such as soya, cotton, oilseed rape, sugar beet or potatoes. Some of the compounds according to the invention have high selectivity and are therefore suitable for controlling unwanted vegetation in agricultural crops by the post-emergence method. The data of Tables B18 to B34 below illustrate, in an exemplary manner, the […] herbicidal action of the compounds according to the invention, the herbicidal activity being stated in percent.

PHBPU [11] = experiment: Post-emergence action against PHBPU; assay type: in vivo, Pharbitis purpurea; conditions: Ipomoea purpurea, 504 h; post-emergence, dosage 80 g/ha
Summary of the method: as §1

ABUTH [12] = experiment: Pre-emergence action against ABUTH; assay type: in vivo, Abutilon theophrasti; conditions: Abutilon theophrasti, 504 h; pre-emergence, dosage 320 g/ha, scored visually after 3 weeks vs untreated controls; read-out: Pre-emergence action against ABUTH (herbicidal activity)
Summary of the method: as §2

AMARE [13] = experiment: Pre-emergence action against AMARE; assay type: in vivo, Amaranthus retroflexus; conditions: Amaranthus retroflexus, 504 h; pre-emergence, dosage 320 g/ha, scored visually after 3 weeks vs untreated controls; read-out: Pre-emergence action against AMARE (herbicidal activity)
Summary of the method: as §2

ALOMY [14] = experiment: Post-emergence action against ALOMY; assay type: in vivo, Alopecurus myosuroides; conditions: Alopecurus myosuroides, 504 h; Dosage 80 g/ha, post-emergence
Summary of the method: as §1

VERPE [15] = experiment: Post-emergence action against VERPE; assay type: in vivo, Veronica persica; conditions: Veronica persica, 504 h, dosage 80 g/ha
Summary of the method: as §1

STEME [16] = experiment: Post-emergence action against STEME; assay type: in vivo, Stellaria media; conditions: Stellaria media, 504 h; post-emergence, dosage 80 g/ha
Summary of the method: as §1

MATIN [17] = experiment: Pre-emergence action against MATIN; assay type: in vivo, Matricaria inodora; conditions: Tripleurospermum inodorum, 504 h; Dosage 320 g/ha, pre-emergence
Summary of the method: as §2

ECHCG [18] = experiment: Pre-emergence action against ECHCG; assay type: in vivo, Echinochloa crus-galli; conditions: Echinochloa crus-galli, 504 h; pre-emergence, dosage 320 g/ha, scored visually after 3 weeks vs untreated controls; read-out: Pre-emergence action against ECHCG (herbicidal activity)
Summary of the method: as §2

CYPES [19] = experiment: Post-emergence action against CYPES; assay type: in vivo, Cyperus esculentus; conditions: Cyperus esculentus, 504 h; post-emergence, dosage 80 g/ha, visual assessment about 3 weeks after treatment vs untreated controls; read-out: Post-emergence action against CYPES (herbicidal action in percent)
Summary of the method: as §1

PHBPU [20] = experiment: Pre-emergence action against PHBPU; assay type: in vivo, Pharbitis purpurea; conditions: Ipomoea purpurea, 504 h; Dosage 320 g/ha, pre-emergence
Summary of the method: as §2

POLCO [21] = experiment: Post-emergence action against POLCO; assay type: in vivo, Polygonum convolvulus; conditions: Fallopia convolvulus, 504 h; post-emergence, dosage 80 g/ha
Summary of the method: as §1

VERPE [22] = experiment: Pre-emergence action against VERPE; assay type: in vivo, Veronica persica; conditions: Veronica persica, 504 h; Dosage 320 g/ha, pre-emergence
Summary of the method: as §2

MATIN [23] = experiment: Post-emergence action against MATIN; assay type: in vivo, Matricaria inodora; conditions: Tripleurospermum inodorum, 504 h; post-emergence, dosage 80 g/ha, visual assessment about 3 weeks after treatment vs untreated controls; read-out: Post-emergence action against MATIN (herbicidal action in percent)
Summary of the method: as §1

ALOMY [24] = experiment: Pre-emergence action against ALOMY; assay type: in vivo, Alopecurus myosuroides; conditions: Alopecurus myosuroides, 504 h; dosage 320 g/ha; pre-emergence; scored visually after 3 weeks vs untreated controls; 100% = plants have died, 0% = like control plants; read-out: Pre-emergence action against ALOMY (herbicidal activity in percent)
Summary of the method: as §2

AVEFA [25] = experiment: Pre-emergence action against AVEFA; assay type: in vivo, Avena fatua; conditions: Avena fatua, 504 h, dosage 320 g/ha, scored visually after 3 weeks vs untreated controls, read-out: Pre-emergence action against AVEFA (herbicidal activity)
Summary of the method: as §2

POLCO [26] = experiment: Pre-emergence action against POLCO; assay type: in vivo, Polygonum convolvulus; conditions: Fallopia convolvulus, 504 h; Dosage 320 g/ha, pre-emergence
Summary of the method: as §2

VIOTR [27] = experiment: Pre-emergence action against VIOTR; assay type: in vivo, Viola tricolor; conditions: Viola tricolor, 504 h; Dosage 320 g/ha, pre-emergence
Summary of the method: as §2

AVEFA [28] = experiment: Post-emergence action against AVEFA; assay type: in vivo, Avena fatua; conditions: Avena fatua, 504 h; post-emergence, dosage 80 g/ha, visual assessment about 3 weeks after treatment vs untreated controls; read-out: Post-emergence action against AVEFA (herbicidal action in percent)
Summary of the method: as §1

SMILES	pest or weed control at 80 g/ha (VIOTR [1])	pest or weed control at 80 g/ha (ECHCG [2])	pest or weed control at 320 g/ha (CYPES [3])	pest or weed control at 320 g/ha (SETVI [4])	pest or weed control at 80 g/ha (SETVI [5])	pest or weed control at 320 g/ha (STEME [6])	pest or weed control at 320 g/ha (LOLMU [7])	pest or weed control at 80 g/ha (ABUTH [9])	pest or weed control at 80 g/ha (LOLMU [10])	pest or weed control at 80 g/ha (PHBPU [11])	pest or weed control at 320 g/ha (ABUTH [12])	pest or weed control at 320 g/ha (AMARE [13])	pest or weed control at 80 g/ha (STEME [16])	pest or weed control at 320 g/ha (MATIN [17])	pest or weed control at 320 g/ha (ECHCG [18])	pest or weed control at 320 g/ha (VERPE [22])	pest or weed control at 80 g/ha (MATIN [23])	pest or weed control at 320 g/ha (ALOMY [24])	pest or weed control at 320 g/ha (AVEFA [25])	pest or weed control at 320 g/ha (POLCO [26])	further results
CCC(=O)c1c(Cl)ccc(C(=O)Nc2nnnn2C)c1Cl [1-115]	100%	90%	100%	90%	90%	100%	100%	90%	90%	90%	100%	100%	100%	100%	100%	100%	100%	100%	100%	80%	pest or weed control at 80 g/ha (AMARE [8]): 90%; pest or weed control at 80 g/ha (ALOMY [14]): 90%; pest or weed control at 80 g/ha (VERPE [15]): 100%; pest or weed control at 80 g/ha (CYPES [19]): 90%; pest or weed control at 320 g/ha (PHBPU [20]): 90%; pest or weed control at 80 g/ha (POLCO [21]): 100%
Cn1nnnc1NC(=O)c1ccc(Cl)c(C(=O)C2CC2)c1Cl [1-116]	90%	90%	–	100%	100%	90%	100%	90%	100%	90%	90%	100%	100%	100%	100%	100%	90%	100%	100%	90%	pest or weed control at 320 g/ha (VIOTR [27]): 100%; pest or weed control at 80 g/ha (AMARE [8]): 90%; pest or weed control at 80 g/ha (AVEFA [28]): 100%; pest or weed control at 80 g/ha (ALOMY [14]): 90%
CC(=O)c1c(C(F)(F)F)ccc(C(=O)Nc2nnnn2C)c1Br [1-195]	100%	90%	100%	100%	90%	90%	90%	80%	90%	90%	100%	100%	100%	100%	100%	100%	90%	90%	100%	80%	pest or weed control at 320 g/ha (VIOTR [27]): 100%; pest or weed control at 80 g/ha (AVEFA [28]): 80%; pest or weed control at 80 g/ha (VERPE [15]): 80%; pest or weed control at 80 g/ha (CYPES [19]): 80%; pest or weed control at 80 g/ha (POLCO [21]): 90%
